# In patent US20220339143A1, “TAK-925 FOR USE IN TREATING NARCOLEPSY” (Takeda Pharmaceutical Company Limited, priority 2019, published 2022):
# Read-outs that look alike come from different tables or passages of the source.
# Test: Single dose PK in healthy subjects (Cohorts 1, 2, S1 and S2), plasma
# Assay type: in vivo, human
# Conditions: human, plasma, iv; for concentration at 3 h after end of infusion: 3 hr After End of Infusions; for concentration at 4 h after end of infusion: 4 hr After End of Infusions; for concentration at 6 h after end of infusion: 6 hr After End of Infusions; for concentration at 10 h after end of infusion: 10 hr After End of Infusions; for concentration at 15 h after end of infusion: 15 hr After End of Infusions
# Method: This study investigates (i) the safety and tolerability of Compound A (methyl (2R,3S)-3-((methylsulfonyl)amino)-2-(((cis-4-phenylcyclohexyl)oxy)methyl)piperidine-1-carboxylate) when a single dose given as a 9 hour continuous IV infusion is administered to healthy adults, healthy elderly subjects and patients with narcolepsy type 1 (NT1); (ii) the pharmacokinetics of Compound A when a single dose given as a 9 hour continuous IV infusion is administered to healthy adults, healthy elderly subjects and patients with narcolepsy type 1; and (iii) the pharmacodynamics (PD) effects of Compound A, primarily by evaluation of the sleep latency on MWT when a single dose given as a 9 hour continuous IV infusion is administered to patients with narcolepsy type 1.
# Pharmacokinetics: Concentrations of Compound A in plasma, and CSF, and pharmacokinetics parameters.
# On average, the time to reach the plateau appeared to be approximately 3 to 4 hours after the start of infusion. […] After switching off the IV infusion, Compound A plasma concentrations declined rapidly and in a biphasic manner with a mean terminal disposition phase t1/2z ranging approximately from 3.4 to 5.1 hours across all doses. […] Table 5 provides a summary of plasma concentrations of Compound A after a single IV infusion in healthy subjects. Table 6 provides a summary of pharmacokinetic parameters of Compound A after a single IV infusion in healthy subjects.
# [1] = 240 mg, 240 mg single IV infusion, read-out: Plasma Concentration of Cmpd A, Maximum
# [2] = 240 mg, 240 mg single IV infusion, read-out: Plasma Concentration of Cmpd A, Median
# [3] = 240 mg, 240 mg single IV infusion, read-out: Plasma Concentration of Cmpd A, Q3
# [4] = 240 mg, 240 mg single IV infusion, read-out: Plasma Concentration of Cmpd A, Q1
smiles,measurement,setting,value
"COC(=O)N1CCC[C@H](NS(C)(=O)=O)[C@@H]1CO[C@H]1CC[C@@H](c2ccccc2)CC1 [Compound A, methyl (2R,3S)-3-((methylsulfonyl)amino)-2-(((cis-4-phenylcyclohexyl)oxy)methyl)piperidine-1-carboxylate]",Vd,"240 mg, 240 mg single IV infusion, healthy subjects, read-out: Vz Mean",313 L
same,Vd,"240 mg, 240 mg single IV infusion, healthy subjects, read-out: Vz Median",293 L
same,Tmax,"240 mg, 240 mg single IV infusion, healthy subjects, read-out: tmax Mean",5.33 h
same,Tmax,"240 mg, 240 mg single IV infusion, healthy subjects, read-out: tmax Median",4 h
same,concentration at 0.5 h,"240 mg, 240 mg single IV infusion, 0.5 hr, read-out: Plasma Concentration of Cmpd A, Maximum",400 ng/mL
same,concentration at 0.5 hr,"240 mg, 240 mg single IV infusion, 0.5 hr, read-out: Plasma Concentration of Cmpd A, Median",264 ng/mL
same,concentration at 0.5 hr,"240 mg, 240 mg single IV infusion, 0.5 hr, read-out: Plasma Concentration of Cmpd A, Q3",368 ng/mL
same,concentration at 1 h,"240 mg, 240 mg single IV infusion, 1 hr, read-out: Plasma Concentration of Cmpd A, Maximum",465 ng/mL
same,concentration at 1 hr,"240 mg, 240 mg single IV infusion, 1 hr, read-out: Plasma Concentration of Cmpd A, Median",318 ng/mL
same,concentration at 1 hr,"240 mg, 240 mg single IV infusion, 1 hr, read-out: Plasma Concentration of Cmpd A, Q3",418 ng/mL
same,concentration at 1.5 h,"240 mg, 240 mg single IV infusion, 1.5 hr, read-out: Plasma Concentration of Cmpd A, Maximum",480 ng/mL
same,concentration at 1.5 hr,"240 mg, 240 mg single IV infusion, 1.5 hr, read-out: Plasma Concentration of Cmpd A, Median",370 ng/mL
same,concentration at 1.5 hr,"240 mg, 240 mg single IV infusion, 1.5 hr, read-out: Plasma Concentration of Cmpd A, Q3",463 ng/mL
same,concentration at 2 h,"240 mg, 240 mg single IV infusion, 2 hr, read-out: Plasma Concentration of Cmpd A, Maximum",482 ng/mL
same,concentration at 2 hr,"240 mg, 240 mg single IV infusion, 2 hr, read-out: Plasma Concentration of Cmpd A, Median",399 ng/mL
same,concentration at 2 hr,"240 mg, 240 mg single IV infusion, 2 hr, read-out: Plasma Concentration of Cmpd A, Q3",452 ng/mL
same,concentration at 3 h after end of infusion,[1],91 ng/mL
same,concentration at 3 h after end of infusion,[2],75.5 ng/mL
same,concentration at 3 h after end of infusion,[3],87.1 ng/mL
same,concentration at 3 h,"240 mg, 240 mg single IV infusion, 3 hr, read-out: Plasma Concentration of Cmpd A, Maximum",582 ng/mL
same,concentration at 3 hr,"240 mg, 240 mg single IV infusion, 3 hr, read-out: Plasma Concentration of Cmpd A, Median",422 ng/mL
same,concentration at 3 h,"240 mg, 240 mg single IV infusion, 3 hr, read-out: Plasma Concentration of Cmpd A, Q3",515 ng/mL
same,concentration at 4 h after end of infusion,[1],65.1 ng/mL
same,concentration at 4 h after end of infusion,[2],56.5 ng/mL
same,concentration at 4 h after end of infusion,[4],53.1 ng/mL
same,concentration at 4 h after end of infusion,[3],62.7 ng/mL
same,concentration at 4 h,"240 mg, 240 mg single IV infusion, 4 hr, read-out: Plasma Concentration of Cmpd A, Maximum",650 ng/mL
same,concentration at 4 hr,"240 mg, 240 mg single IV infusion, 4 hr, read-out: Plasma Concentration of Cmpd A, Median",459 ng/mL
same,concentration at 4 h,"240 mg, 240 mg single IV infusion, 4 hr, read-out: Plasma Concentration of Cmpd A, Q3",579 ng/mL
same,concentration at 6 h after end of infusion,[1],38.2 ng/mL
same,concentration at 6 h after end of infusion,[2],28.4 ng/mL
same,concentration at 6 h after end of infusion,[4],23 ng/mL
same,concentration at 6 h after end of infusion,[3],36.9 ng/mL
same,concentration at 6 h,"240 mg, 240 mg single IV infusion, 6 hr, read-out: Plasma Concentration of Cmpd A, Maximum",532 ng/mL
same,concentration at 6 hr,"240 mg, 240 mg single IV infusion, 6 hr, read-out: Plasma Concentration of Cmpd A, Median",410 ng/mL
same,concentration at 6 h,"240 mg, 240 mg single IV infusion, 6 hr, read-out: Plasma Concentration of Cmpd A, Q3",514 ng/mL
same,concentration at 8 h,"240 mg, 240 mg single IV infusion, 8 hr, read-out: Plasma Concentration of Cmpd A, Maximum",562 ng/mL
same,concentration at 8 hr,"240 mg, 240 mg single IV infusion, 8 hr, read-out: Plasma Concentration of Cmpd A, Median",470 ng/mL
same,concentration at 8 hr,"240 mg, 240 mg single IV infusion, 8 hr, read-out: Plasma Concentration of Cmpd A, Q3",542 ng/mL
same,concentration at 9 h,"240 mg, 240 mg single IV infusion, 9 hr, read-out: Plasma Concentration of Cmpd A, Maximum",613 ng/mL
same,concentration at 9 hr,"240 mg, 240 mg single IV infusion, 9 hr, read-out: Plasma Concentration of Cmpd A, Median",481 ng/mL
same,concentration at 9 hr,"240 mg, 240 mg single IV infusion, 9 hr, read-out: Plasma Concentration of Cmpd A, Q3",539 ng/mL
same,concentration at 10 h after end of infusion,[1],18.6 ng/mL
same,concentration at 10 h after end of infusion,[2],16.6 ng/mL
same,concentration at 10 h after end of infusion,[4],10.3 ng/mL
same,concentration at 10 h after end of infusion,[3],17.5 ng/mL
same,concentration at 15 h after end of infusion,[1],9.71 ng/mL
same,concentration at 15 h after end of infusion,[2],7.64 ng/mL
same,concentration at 15 h after end of infusion,[4],3.39 ng/mL
same,concentration at 15 h after end of infusion,[3],8.82 ng/mL
same,clearance,"IV administration, healthy subjects, read-out: mean estimates of plasma clearance",717 to 1000 mL/min
